Experiments:
Format in all cases: in vivo, human
[1] = tested on: parturients with vascular Ehlers-Danlos syndrome; test: Maternal mortality analysis of vascular EDS families; settings: one patient, 7 months after delivery; programmed early c-section, unremarkable arterial monitoring after the postpartum period
From the text: For the mortality analysis, the medical charts and pedigrees of all patients known to the French referral center for rare vascular diseases (AP-HP, Centre de Référence des Maladies Vasculaires Rares, Hôpital Européen Georges Pompidou, Paris, France) for having a molecularly confirmed vascular EDS, were screened for past or ongoing pregnancies, and for maternal deaths in probands and pedigrees. All families known to our center with at least one proband diagnosed with vascular EDS (nationwide patient cohort) were considered for participation to the maternal mortality analysis after exclusion of ascendants of patients with neomutations (see below). Patients with a personal history of pregnancy were considered for participation to the obstetrical interview study. […]
Maternal deaths were determined according to definitions of the 10th revision of the International Classification of Diseases of the World Health Organization (Geneva 2004). Pregnancy-related deaths defined as the death of a woman while pregnant or within 42 days of termination of pregnancy, irrespective of the cause of death, were determined for probands, first and second degree ascendants. […] A global maternal mortality ratio was then determined, which encompassed pregnancy-related and late maternal mortality ratios. […]

[2] = tested on: newborn of mothers who received celiprolol during pregnancy and delivery; test: Newborn well-being after indirect exposure to celiprolol during pregnancy; settings: n=7 newborn of mothers who received celiprolol during pregnancy and delivery
Experimental: For each newborn, weight and height at birth were recorded and presented as a function of term of pregnancy, as previously described. Health status at birth was assessed by the APGAR score noted in the children's health record, and any significant event that occurred at birth was collected (respiratory failure, pneumothorax, significant verifiable birth defects).
Reference charts for birth weight and size were constructed according to Battaglia et al. with normal values based on approximately 57 000 newborn of the Paris (France) area as reported by Salomon et al.[15].

[3] = tested on: parturients with molecularly confirmed vascular Ehlers-Danlos syndrome; test: Maternal morbidity study (obstetrical interview study) of vascular EDS parturients; prescription of celiprolol during pregnancy, delivery and post-partum period
Experimental: For each pregnancy, date and time of delivery were recorded, as well as term of pregnancy at birth, expressed in weeks of amenorrhea (WA). In case of preterm labour or premature rupture of membranes (PROM), gestational age of occurrence was noted. Ongoing treatments during pregnancy were recorded, especially betablockers (celiprolol). In case of anaesthesia, type of ([…], general) and complications were collected (haematoma, leakage of spinal fluid, pneumothorax for general anaesthesia). Delivery was described as follows: type (vaginal, c-section), duration of labour for vaginal delivery and the use of forceps or episiotomy. Vascular complications were defined by the occurrence of arterial dissections and ruptures during pregnancy, delivery and during the post-partum period defined as 42 days after delivery. Haemorrhagic complications were defined by, either significant bleeding when reported as such by patients and/or medical records, either by bleeding requiring blood transfusion or post-partum haemorrhage. Bleeding events >1000 ml with hemodynamic collapse are reported as haemorrhagic shock. Perineal damage was defined by the occurrence of a perineal tear related or not with episiotomy. Perineal injury was graded according to Sultan et al., from grade I (limited defect of perineal skin), to grade IV (injury of the perineum involving the anal sphincter complex and epithelium) perineal tears.
After the first interview, all relevant obstetrical data, especially term of pregnancies and obstetrical complications (preterm labour, PROM, uterine rupture, haemorrhage) were independently checked for accuracy of diagnosis and staging by a senior obstetrician during a second interview, and hospital records of deliveries were checked, when available.
Programmed Early C-Section and Prescription of Celiprolol
In n=12 (20%) pregnancies of this cohort, diagnosis of maternal vascular EDS (n=11, 28%) was suspected (n=2) or genetically confirmed (n=9) at the time of delivery, with consequent obstetrical management (prescription of celiprolol 200 mg BID in n=7 patients covering 7/12 pregnancies; preterm c-section in n=11/12 deliveries, of which 9 were scheduled).

[4] = patients treated with celiprolol 200 mg BID, n=7

How did the “late maternal death by spontaneous intra-abdominal arterial rupture” value [1] turn out when `CCN(CC)C(=O)Nc1ccc(OCC(O)CNC(C)(C)C)c(C(C)=O)c1` (centres unmarked) [celiprolol, N′-(3-Acetyl-4-(3-((1,1-dimethylethyl)amino)-2-hydroxypropoxy)phenyl)-N,N-diethylurea] was run?
Its value is “occurred spontaneously despite a programmed early c-section, medication by celiprolol”.

What about the neonatal hypoglycaemia [2] of the same compound?
The neonatal hypoglycaemia was “none of the n=7 newborn”.

And the “other indications of adverse effects of indirect exposure to celiprolol during pregnancy” value [2]?
Its value is “nor had other indications of adverse effects”.

And the “tolerability of celiprolol throughout pregnancy and the post-partum period” value ([3]; celiprolol 200 mg BID in n=7 patients covering 7/12 pregnancies)?
Its value is “well tolerated”.

And the “dose adjustment in comparison to the dosage prescribed prior to the beginning of each pregnancy” value ([3]; celiprolol 200 mg BID, n=7 patients, throughout pregnancy and the post-partum period)?
The value was “no dose adjustment was necessary in any patient”.

What about the “arterial event (dissection, rupture)” value [3, 4] of the same compound?
The value was “No arterial event (dissection, rupture)”.

What about the “maternal survival of pregnancies and post-partum periods” value [3, 4] of the same compound?
Its value is “all patients treated with celiprolol survived”.

What about the uterine rupture [3, 4] of the same compound?
Its uterine rupture is “nor uterine rupture occurred in any patient”.

Reference: US20190192456A1, “USE OF CELIPROLOL FOR TREATING VASCULAR EHLERS-DANLOS SYNDROME IN WOMEN DURING PREGNANCY AND PERIPARTUM PERIOD” (Assistance Publique-Hôpitaux de Paris (AP-HP), priority 2017, published 2019)
